pKd: −log10 of the molar value.
Target: T1, iNAP1
T1 construct: gene rex; 6xHis N-terminal, E. coli BL21(DE3) pLys
Test: sensor fluorescence titration, excitation […] nm, emission […] nm
Assay type: binding
Details: 22 °C, in vitro, pseudocytosol medium pH 7.5, 0.5 μM sensor

A pKd of 6.52 was found for `NC(=O)C1=CN([C@@H]2O[C@H](COP(=O)(O)OP(=O)(O)OC[C@H]3O[C@@H](n4cnc5c(N)ncnc54)[C@H](OP(=O)(O)O)[C@@H]3O)[C@@H](O)[C@H]2O)C=CC1` [NADPH] in this work.
